Earlier results on 1 compound are cited in patent EP0502042B1, “PHARMACEUTICAL COMPOSITIONS” (PHARMACIA S.p.A., priority 1989, dated 1991).

Each structure is given as a SMILES string.

In the data set the test system is mice.

`CN1C(=O)C(O)N=C(c2ccccc2)c2cc(Cl)ccc21` (stereo not shown) [Temazepam]: the “oral LD 50” value was around 1000 mg/kg.
